System: digitonin-permeabilized bovine adrenochromaffin cells
Format: cell-based

botulinum toxin type A
inhibition of Ca2+-stimulated catecholamine release: inhibition
